Literature values as cited in patent US20210267908A1, “PHARMACEUTICAL COMPOSITIONS OF RIVAROXABAN” (MANKIND PHARMA LTD., priority 2020, published 2021).

amount pH-independently soluble in aqueous media (aqueous media at 25° C.): 5-7 mg/L
solubility in organic solvents (organic solvents (e.g. acetone, polyethylene glycol 400)): only slightly soluble
solubility in water and aqueous media (water and aqueous media with pH 1-9): practically insoluble
Compound: O=C(NC[C@H]1CN(c2ccc(N3CCOCC3=O)cc2)C(=O)O1)c1ccc(Cl)s1 [Rivaroxaban, 5-Chloro-N-({(5S)-2-oxo-3-[4-(3-oxo-4-morpholinyl)phenyl]-1,3-oxazolidin-5-yl}methyl)-2-thiophenecarboxamide]
